Reference: patent publication US20230271969A1, “NITROGEN-CONTAINING FUSED RING DERIVATIVE INHIBITOR, PREPARATION METHOD THEREFOR AND USE THEREOF” (Shanghai Hansoh Biomedical Co., Ltd., priority 2020, published 2023)

Columns and labels:
NK3 receptors [1] = molecular target: T1, NK3 receptors (Homo sapiens, UniProt P29371); test: Calcium ion fluidity (FLIPR) in cells with stable expression of NK3 receptors; format: cell-based; conditions: calcium signal, antagonist mode, read-out: NK3R IC50 (nM) FLIPR
T1 construct: expressed in transfected cells
T1 sequence (P29371 1-465): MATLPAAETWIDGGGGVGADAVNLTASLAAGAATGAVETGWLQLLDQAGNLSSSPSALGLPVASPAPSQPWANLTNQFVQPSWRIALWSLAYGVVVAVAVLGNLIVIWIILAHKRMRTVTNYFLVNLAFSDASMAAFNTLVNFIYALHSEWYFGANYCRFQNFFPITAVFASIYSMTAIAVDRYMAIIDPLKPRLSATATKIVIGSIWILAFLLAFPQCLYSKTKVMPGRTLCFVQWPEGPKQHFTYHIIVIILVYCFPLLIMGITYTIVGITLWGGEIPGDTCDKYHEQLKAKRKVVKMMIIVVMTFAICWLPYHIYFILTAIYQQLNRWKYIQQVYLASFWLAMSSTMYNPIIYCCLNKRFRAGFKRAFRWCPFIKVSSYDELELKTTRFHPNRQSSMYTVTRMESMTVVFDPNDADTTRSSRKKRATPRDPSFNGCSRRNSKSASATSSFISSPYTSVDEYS

NK3 receptors [2] = molecular target: T1, NK3 receptors; test: Antagonism of IP1 in HEK293 cells with stable expression of NK3; format: cell-based; conditions: agonist Senktide 3 nM, read-out: NK3R IC50 (nM) IP1
[3] = system: luteinizing hormone (LH) content in plasma; test: Luteinizing hormone (LH) content in plasma of bilateral ovariectomy (OVX) rats; format: in vivo; conditions: oral 30 mg/kg, plasma LH 0-8 h
Excerpt: Test Example 5. Effect of the Compounds of the Present Invention on Luteindzing Hormone (LH) Content in Plasma of Bilateral Ovariectomy (OVX) Rats
The objective of this test example was to determine the effect of the compounds on luteinizing hormone (LH) in plasma of bilateral ovarnectomy (OVX) rats.
10-Week-old female bilateral ovariectomy SD rats were purchased from Beijing Vital River Laboratory Animal Technology Co., Ltd. The animals were housed in a SPF grade animal facility with 5 SD rats per cage. The cages, bedding, feed and water were disinfected at high temperatures before use. All animals had free access to food and water.
Drug administration by groups: 10-Week-old female SD rats were subjected to bilateral ovariectomy and used in experiments after 3 weeks. Each SD rat was fasted overnight before the experiment, and then randomly divided into groups (3 rats per group) before the drug administration. Different test compounds were administered orally to each drug administration group at a dose of 30 mg/kg and a volume of 10 mL/kg.
Sample collection: 0.2-0.3 mL of whole blood of the SD rats in each group was collected at 0, 0.5, 1, 2, 4, 8 hours before and after the drug administration, and placed in EDTA-K2 tubes. The tubes were inverted and mixed well, and centrifuged at 4° C. at 5,000 rpm for 5 min. Then the plasma was separated and stored in an ultra-low temperature freezer (−80±10° C.).
Sample detection: All reagents, samples and ELISA plates were equilibrated at room temperature (20-25° C.) for at least 30 min. The sample was thawed, vortexed and centrifuged for use. The standard curve was prepared with Assay buffer C according to the concentration sequence of 10, 5, 2.5, 1.25, 0.625, 0.313 and 0. The sample was diluted by two folds with Sample dilution buffer G and left to stand at room temperature for 10 min. […] The OD values of each well was read at a wavelength of 450 nm with a microplate reader.
The standard curve was plotted by using Graphpad, and the concentration of the sample was calculated. […]

SMILES	IC50 (NK3 receptors [1])	IC50 (NK3 receptors [2])	ΣAUC(ΔLH/LH · h, Mean ± SD) [3]
[2H]c1cc(C(=O)N2CCn3c(-c4nc5cc(F)c(F)cc5s4)nnc3[C@H]2C)ccc1F [Example 62]	73.6 nM	92.3 nM	−1.77 ± 0.42 ΔLH/LH · h
[2H]c1cc(C(=O)N2CCn3c(-c4nc(Cl)ns4)nnc3[C@H]2C)ccc1Cl [Example 73, (R)-(3-(3-Chloro-1,2,4-thiadiazol-5-yl)-8-methyl-5,6-dihydro-[1,2,4]triazolo[4,3-a]pyrazin-7(8H)-yl)(4-chlorophenyl-3-d)methanone]	267 nM		−2.04 ± 1.36 ΔLH/LH · h
